Values after ≈ are worked out from the molar mass of the structure shown.
Tests used:
[1] = system: vancomycin-resistant enterococci (VanB), ATCC 51299; settings: teicoplanin susceptible
[2] = system: VRE (VanA), MMX 486; settings: vancomycin and teicoplanin resistant
[3] = system: methicillin-resistant S. aureus, ATCC 43300
[4] = system: vancomycin-susceptible enterococci, ATCC 29212
[5] = system: methicillin-susceptible S. aureus, ATOC 29213
[6] = system: VRE (VanA), MMX 486; test: microbe, parasite or virus in culture; settings: Enterococcus, read-out: MIC, VRE (VanA)
[7] = system: vancomycin-susceptible enterococci, ATCC 29212; test: organism not typed; settings: read-out: MIC, VSE
[8] = system: vancomycin-resistant enterococci (VanB), ATCC 51299; test: microbe, parasite or virus in culture; settings: Enterococcus, ATCC51299|VRE, read-out: MIC, VRE (VanB)

| Molecule | MIC, VRE (VanB) [1] [µg/mL] | MIC, VRE (VanA) [2] [µg/mL] | MIC, MRSA [3] [µg/mL] | MIC, VSE [4] [µg/mL] | MIC, MSSA [5] [µg/mL] | MIC [6] [µg/mL] | MIC [7] [µg/mL] | MIC [8] [µg/mL] |
| --- | --- | --- | --- | --- | --- | --- | --- | --- |
| CN[C@H](CC(C)C)C(=O)N[C@H]1C(=O)N[C@@H](CC(N)=O)C(=O)N[C@H]2C(=O)N[C@H]3C(=O)N[C@H](C(=O)N[C@H](C(=O)O)c4cc(O)cc(O)c4-c4cc3ccc4O)[C@H](O)c3ccc(c(Cl)c3)Oc3cc2cc(c3O[C@@H]2O[C@H](CO)[C@@H](O)[C@H](O)[C@H]2O[C@H]2C[C@](C)(N)[C@H](O)[C@H](C)O2)Oc2ccc(cc2Cl)[C@H]1O [Vancomycin] | 16 (≈ 11 µM) | >64 | 1 (≈ 0.69 µM) | 2 (≈ 1.38 µM) | 0.5 (≈ 0.345 µM) | – | – | – |
| Teicoplanin | 0.25 | >64 | 0.5 | 0.25 | 0.5 | – | – | – |
| CC(=O)NC[C@H]1CN(c2ccc(N3CCOCC3)c(F)c2)C(=O)O1 [Linezolid] | – | – | – | – | – | 2 (≈ 5.93 µM) | 2 (≈ 5.93 µM) | 2 (≈ 5.93 µM) |
| teicoplanin A2-2 | 0.25 | >64 | 0.5 | 0.25 | 0.5 | – | – | – |

Reference: publication PMC3800266 (Journal of the American Chemical Society, 2013)
